Experiments:
SHP-2 enzyme = biological target: T1, SHP-2 enzyme (Homo sapiens, UniProt Q06124); experiment: Phosphatase activity assay (Homogeneous Full Length SHP-2 Assay Kit, DiFMUP substrate); type: biochemical; conditions: full length SHP-2 activated with 0.5 μM SHP-2 activating Peptide; 1 hour co-incubation; DiFMUP 50 μM, 30 min
T1 construct: Homogeneous Full Length SHP-2 Assay Kit (BPS Bioscience #79330); purchased BPS Bioscience 79330
T1 sequence (Q06124 1-593): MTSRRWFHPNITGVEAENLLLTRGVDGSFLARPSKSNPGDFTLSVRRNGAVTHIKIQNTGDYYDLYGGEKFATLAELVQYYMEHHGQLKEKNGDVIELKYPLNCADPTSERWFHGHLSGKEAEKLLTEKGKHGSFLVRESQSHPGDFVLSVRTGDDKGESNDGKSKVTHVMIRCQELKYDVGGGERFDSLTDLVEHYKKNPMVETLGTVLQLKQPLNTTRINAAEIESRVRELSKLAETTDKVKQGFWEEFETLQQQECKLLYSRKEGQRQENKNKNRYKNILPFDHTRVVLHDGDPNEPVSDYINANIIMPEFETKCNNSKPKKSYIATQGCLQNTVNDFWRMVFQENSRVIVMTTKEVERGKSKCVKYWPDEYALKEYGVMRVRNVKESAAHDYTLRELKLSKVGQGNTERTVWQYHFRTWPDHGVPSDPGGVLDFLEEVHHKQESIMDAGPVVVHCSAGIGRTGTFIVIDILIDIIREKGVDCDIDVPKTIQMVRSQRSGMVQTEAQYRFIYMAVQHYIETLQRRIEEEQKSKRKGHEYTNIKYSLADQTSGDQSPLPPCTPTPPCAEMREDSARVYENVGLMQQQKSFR
Description: IC50 values were assayed using Homogeneous Full Length SHP-2 Assay Kit (BPS Bioscience #79330), which uses 6,8-difluoro-4-methylumbelliferone phosphate (DiFMUP) as the reaction substrate. SHP2 enzyme solution (diluted to 0.04 ng/μL with 1*buffer) was mixed with 0.5 μM SHP-2 activating Peptide in a 1*buffer solution containing 2.5 mM DTT to activate PTP. At the same time, DMSO (0.1% (V/V)) or the compounds (concentration: 0.5 nM to 1 μM) were added, mixed and co-incubated for 1 hour. DiFMUP (50 μM, total reaction system volume of 20 μL) was added, and the reaction was started. After 30 min of incubation, the fluorescence intensity of the reaction system (excitation wavelength: 350 nm, emission wavelength: 460 nm) was measured by Tecan Infinite M1000.

MV-4-11 cell = experiment: Cell proliferation assay (Cell Titer-Glo); type: cell-based; conditions: Homo sapiens, MV4-11, 96 h, inhibition of MV-4-11 cell proliferation; Cell Titer-Glo on day 4
Description: MV 411 cells (20000 cells/well) were inoculated and cultured in 96 (Corning #3916) well plates, and the medium was 80 μL/well (IMDM with 10% fetal bovine serum (FBS), Gibco #10099-141C). After 24 hours of incubation, 20 μL of the compounds of the present invention configured to different concentrations (DMSO final concentration of 0.1% (V/V)) were added. On day 4, 60 μL of Cell Titer-Glo (Promega #G7558) was added to each well and mixed at 80 rpm, 25° C., 15 min, and the fluorescence values were detected by Victor X5 (PE).

Row | Structure (SMILES) | IC50 (SHP-2 enzyme) | IC50 (MV-4-11 cell)
1 | Nc1nc(N2CCC3(CC2)Cc2ccc(Cl)cc2C3N)cnc1C(=O)N1CCCn2nccc21 (centres unmarked) [Compound 2] | 4 nM | 24 nM
2 | Nc1nc(N2CCC3(CC2)Cc2ccccc2C3N)cnc1C(=O)N1CCCn2nccc21 (centres unmarked) [Compound 3] | 13 nM | 54 nM
3 | Nc1nc(N2CCC3(CC2)Cc2cc(F)ccc2C3N)cnc1C(=O)N1CCCn2nccc21 (centres unmarked) [Compound 4] | 1 nM | 78 nM
4 | COc1ccc2c(c1)C(N)C1(CCN(c3cnc(C(=O)N4CCCn5nccc54)c(N)n3)CC1)C2 (centres unmarked) [Compound 5] | 1 nM | 220 nM
5 | Nc1nc(N2CCC3(CC2)Cc2ccccc2C3N)cnc1C(=O)N1CCOc2cccnc21 (centres unmarked) [Compound 6] | 83 nM | –
6 | Nc1nc(N2CCC3(CC2)Cc2ccccc2C3N)cnc1C(=O)N1CCc2ncccc21 (centres unmarked) [Compound 7] | 6 nM | 95 nM
7 | Nc1nc(N2CCC3(CC2)Cc2ccc(F)cc2C3N)cnc1C(=O)N1CCCn2nccc21 (centres unmarked) [Compound 8] | 5 nM | 111 nM
8 | NC1c2ccccc2CC12CCN(c1cnc(C(=O)N3CCCn4nccc43)cn1)CC2 (centres unmarked) [Compound 9] | 59 nM | –
9 | Nc1nc(N2CCC3(CC2)Cc2ccccc2C3N)cnc1C(=O)N1CCc2ncsc2C1 (centres unmarked) [Compound 10] | 4 nM | 44 nM
10 | Nc1nc(N2CCC3(CC2)Cc2ccccc2C3N)cnc1C(=O)N1CCOc2ncccc21 (centres unmarked) [Compound 11] | 24 nM | –
11 | Nc1nc(N2CCC3(CC2)Cc2ccccc2C3N)cnc1C(=O)N1CCCc2cccnc21 (centres unmarked) [Compound 12] | 49 nM | –
12 | Nc1nc(N2CCC3(CC2)Cc2ccccc2C3N)cnc1C(=O)N1CCCc2ncccc21 (centres unmarked) [Compound 13] | 11 nM | 82 nM
13 | Nc1nc(N2CCC3(CC2)Cc2ccccc2C3N)cnc1C(=O)N1CCCc2c(Cl)cccc21 (centres unmarked) [Compound 14] | 22 nM | –
14 | N#Cc1cccc2c1CCCN2C(=O)c1ncc(N2CCC3(CC2)Cc2ccccc2C3N)nc1N (centres unmarked) [Compound 15] | 13 nM | 170 nM
15 | Nc1nc(N2CCC3(CC2)Cc2ccc(F)cc2C3N)cnc1C(=O)N1CCc2ncccc21 (centres unmarked) [Compound 16] | 5 nM | 40 nM
16 | Nc1nc(N2CCC3(CC2)Cc2ccc(F)cc2C3N)cnc1C(=O)N1CCc2ncsc2C1 (centres unmarked) [Compound 17] | 4 nM | 17 nM
17 | Nc1nc(N2CCC3(CC2)Cc2ccccc2C3N)cnc1C(=O)N1CCc2scnc2C1 (centres unmarked) [Compound 19] | 5 nM | 142 nM
18 | Nc1nc(N2CCC3(CC2)Cc2ccccc2C3N)cnc1C(=O)N1Cc2cccnc2C1 (centres unmarked) [Compound 20] | 17 nM | –
19 | Nc1nc(N2CCC3(CC2)Cc2cc(F)ccc2C3N)cnc1C(=O)N1CCc2ncccc21 (centres unmarked) [Compound 21] | 3 nM | 107 nM

Row | Structure (SMILES) | IC50 (SHP-2 enzyme) | IC50 (MV-4-11 cell)
20 | Nc1nc(N2CCC3(CC2)Cc2ccc(C(F)(F)F)cc2C3N)cnc1C(=O)N1CCCn2nccc21 (centres unmarked) [Compound 22] | 6 nM | 78 nM
21 | NC(=O)c1nc(C(=O)N2CCCn3nccc32)cnc1N1CCC2(CC1)Cc1ccccc1C2N (centres unmarked) [Compound 23] | 22 nM | –
22 | Nc1nc(N2CCC3(CC2)Cc2sc(Cl)nc2C3N)cnc1C(=O)N1CCCn2nccc21 (centres unmarked) [Compound 25] | 15 nM | –
23 | Cc1nc(C(=O)N2CCCn3nccc32)c(N)nc1N1CCC2(CC1)Cc1ccc(F)cc1C2N (centres unmarked) [Compound 27] | 5 nM | 98 nM
24 | Nc1nc(N2CCC3(CC2)Cc2ccccc2C3N)c(Cl)nc1C(=O)N1CCCn2nccc21 (centres unmarked) [Compound 28] | 4 nM | 44 nM
25 | Nc1nc(N2CCC3(CC2)Cc2ccccc2C3N)c(Br)nc1C(=O)N1CCCn2ncc(Br)c21 (centres unmarked) [Compound 29] | 43 nM | –
26 | Nc1nc(N2CCC3(CC2)Cc2ccccc2C3N)c(Cl)nc1C(=O)N1CCCn2ncc(Cl)c21 (centres unmarked) [Compound 31] | 47 nM | –
27 | Cc1cc2n(n1)CCCN2C(=O)c1ncc(N2CCC3(CC2)Cc2ccccc2C3N)nc1N (centres unmarked) [Compound 32] | 28 nM | –
28 | Cn1cc(-c2ccc3c(n2)CCCN3C(=O)c2ncc(N3CCC4(CC3)Cc3ccccc3C4N)nc2N)cn1 (centres unmarked) [Compound 33] | 29 nM | 285 nM
29 | N#Cc1ccc2c(c1)C(N)C1(CCN(c3cnc(C(=O)N4CCCn5nccc54)c(N)n3)CC1)C2 (centres unmarked) [Compound 34] | 6 nM | 56 nM
30 | CC1(C)CN(C(=O)c2ncc(N3CCC4(CC3)Cc3ccccc3C4N)nc2N)c2cccnc21 (centres unmarked) [Compound 36] | 18 nM | –
31 | Nc1nc(N2CCC3(CC2)Cc2ccccc2C3N)cnc1C(=O)N1CCn2nccc2C1 (centres unmarked) [Compound 37] | 5 nM | 172 nM
32 | Nc1nc(N2CCC3(CC2)Cc2ncccc2C3N)cnc1C(=O)N1CCCn2nccc21 (centres unmarked) [Compound 39] | 36 nM | –
33 | Cn1c(N2CCC3(CC2)Cc2ccccc2C3N)nc(N)c(C(=O)N2CCCn3nccc32)c1=O (centres unmarked) [Compound 40] | 59 nM | 59 nM
34 | Cc1nc(N2CCC3(CC2)Cc2ccccc2C3N)c(CO)nc1C(=O)N1CCCn2nccc21 (centres unmarked) [Compound 43] | 60 nM | –
35 | Cc1nc(N2CCC3(CC2)Cc2ccccc2C3N)c(C(N)=O)nc1C(=O)N1CCCn2nccc21 (centres unmarked) [Compound 44] | 25 nM | –
36 | Nc1nc(N2CCC3(CC2)Cc2ccccc2C3N)nnc1C(=O)N1CCCn2nccc21 (centres unmarked) [Compound 45] | 7 nM | 176 nM
37 | NC1c2ccccc2CC12CCN(c1ncc(C(=O)N3CCc4ncsc4C3)c3nccn13)CC2 (centres unmarked) [Compound 46] | 29 nM | 166 nM
38 | Nc1nc(N2CCC3(CC2)Cc2cc(Cl)ccc2C3N)cnc1C(=O)N1CCCn2nccc21 (centres unmarked) [Compound 48] | 4 nM | –

Row | Structure (SMILES) | IC50 (SHP-2 enzyme) | IC50 (MV-4-11 cell)
39 | Nc1nc(N2CCC3(CC2)Cc2ccccc2C3N)c(F)nc1C(=O)N1CCCn2nccc21 (centres unmarked) [Compound 49] | 8 nM | 241 nM
40 | Cn1cnc2c1CCCN2C(=O)c1ncc(N2CCC3(CC2)Cc2ccccc2C3N)nc1N (centres unmarked) [Compound 50] | 14 nM | 241 nM
41 | Nc1nc(N2CCC3(CC2)Cc2ccccc2C3N)cnc1C(=O)N1CCc2ncncc21 (centres unmarked) [Compound 51] | 35 nM | –
42 | Nc1nc(N2CCC3(CC2)Cc2cc(C(F)(F)F)ccc2C3N)cnc1C(=O)N1CCCn2nccc21 (centres unmarked) [Compound 55] | 50 nM | –
43 | CC(C)(O)c1ccc2c(c1)C(N)C1(CCN(c3cnc(C(=O)N4CCCn5nccc54)c(N)n3)CC1)C2 (centres unmarked) [Compound 56] | 21 nM | –
44 | CC1CN(C(=O)c2ncc(N3CCC4(CC3)Cc3ccccc3C4N)nc2N)c2cccnc21 (centres unmarked) [Compound 57] | 6 nM | –
45 | CC1(C)Cc2nc(N)sc2CN1C(=O)c1ncc(N2CCC3(CC2)Cc2ccccc2C3N)nc1N (centres unmarked) [Compound 69] | – | 49 nM
46 | [2H]C1([2H])CN(C(=O)c2ncc(N3CCC4(CC3)Cc3ccc(C)cc3C4N)nc2N)Cc2sc(N)nc21 (centres unmarked) [Compound 71] | – | 16 nM
47 | Cc1ccc2c(c1)C(N)C1(CCN(c3cnc(C(=O)N4Cc5sc(N)nc5C(F)(F)C4)c(N)n3)CC1)C2 (centres unmarked) [Compound 72] | – | 12 nM
48 | COc1ccc2c(c1)C(N)C1(CCN(c3cnc(C(=O)N4Cc5sc(N)nc5C(F)(F)C4)c(N)n3)CC1)C2 (centres unmarked) [Compound 73] | – | 19 nM
49 | Nc1nc2c(s1)CN(C(=O)c1cnc(N3CCC4(CC3)Cc3ccccc3C4N)c(CO)n1)CC2(F)F (centres unmarked) [Compound 74] | – | 6 nM
50 | Nc1ccc2c(n1)CCN2C(=O)c1ncc(N2CCC3(CC2)Cc2cccc(F)c2C3N)nc1N (centres unmarked) [Compound 90] | 24 nM | –
51 | Nc1ccc2c(n1)CCN2C(=O)c1ncc(N2CCC3(CC2)Cc2ccncc2C3N)nc1N (centres unmarked) [Compound 97] | 10 nM | –
52 | Nc1ccc2c(n1)CCCN2C(=O)c1ncc(N2CCC3(CC2)Cc2ccccc2C3N)nc1N (centres unmarked) [Compound 98] | 26 nM | –
53 | Cc1nc(N2CCC3(CC2)Cc2ccccc2C3N)c(CO)nc1C(=O)N1CCc2nc(N)ccc21 (centres unmarked) [Compound 111] | 15 nM | –
54 | CC1(C)Cc2nc(N)sc2CN1C(=O)c1ncc(N2CCC3(CC2)Cc2ccccc2C3N)nc1N (centres unmarked) [Compound 121] | 9 nM | –
55 | [2H]C1([2H])CN(C(=O)c2ncc(N3CCC4(CC3)Cc3ccc(C)cc3C4N)nc2N)Cc2sc(N)nc21 (centres unmarked) [Compound 123] | 5 nM | –
56 | Cc1ccc2c(c1)C(N)C1(CCN(c3cnc(C(=O)N4Cc5sc(N)nc5C(F)(F)C4)c(N)n3)CC1)C2 (centres unmarked) [Compound 124] | 9 nM | –
